From paper doi:10.1101/2023.06.17.545066v1 (biorxiv, 2023)
Values belong to the molecule of their own block, whether it stands above or below them.

Legend:
[1] = target: T1, EcL-TTD (L-tartrate dehydratase, L-TTDα + L-TTDβ) (Escherichia coli, UniProt P05847+P0AC35); experiment: coupled malate dehydrogenase/NADH assay at […] nm, inhibition kinetics; type: biochemical
T1 sequence (P05847 1-303): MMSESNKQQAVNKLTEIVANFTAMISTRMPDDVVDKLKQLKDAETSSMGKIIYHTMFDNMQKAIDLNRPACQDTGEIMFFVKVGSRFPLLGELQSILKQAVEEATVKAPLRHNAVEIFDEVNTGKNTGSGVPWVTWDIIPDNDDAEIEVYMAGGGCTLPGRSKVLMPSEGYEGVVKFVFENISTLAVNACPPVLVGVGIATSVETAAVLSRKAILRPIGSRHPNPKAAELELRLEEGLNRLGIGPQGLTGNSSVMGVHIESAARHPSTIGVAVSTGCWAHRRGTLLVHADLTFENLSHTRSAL
T1 sequence (P0AC35 1-201): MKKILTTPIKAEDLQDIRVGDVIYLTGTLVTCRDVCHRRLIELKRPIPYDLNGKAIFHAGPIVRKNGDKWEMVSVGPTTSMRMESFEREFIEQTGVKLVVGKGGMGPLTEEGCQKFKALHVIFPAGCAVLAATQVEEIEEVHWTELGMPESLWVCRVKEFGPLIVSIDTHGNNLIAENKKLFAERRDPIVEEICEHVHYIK

[2] = target: T2, MjFH (class-I fumarate hydratase, α + β subunits) (Methanocaldococcus jannaschii, UniProt Q58034+Q58690); experiment: fumarate formation at […] nm, inhibition kinetics; type: biochemical
T2 sequence (Q58690 1-285): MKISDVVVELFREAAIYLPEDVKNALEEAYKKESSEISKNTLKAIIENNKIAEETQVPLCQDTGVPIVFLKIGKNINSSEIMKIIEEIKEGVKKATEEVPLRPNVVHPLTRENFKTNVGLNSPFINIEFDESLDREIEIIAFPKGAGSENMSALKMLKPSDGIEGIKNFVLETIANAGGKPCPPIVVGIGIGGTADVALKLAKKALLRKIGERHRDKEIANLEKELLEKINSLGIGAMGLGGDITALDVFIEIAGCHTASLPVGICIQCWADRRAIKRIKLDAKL
T2 sequence (Q58034 1-195): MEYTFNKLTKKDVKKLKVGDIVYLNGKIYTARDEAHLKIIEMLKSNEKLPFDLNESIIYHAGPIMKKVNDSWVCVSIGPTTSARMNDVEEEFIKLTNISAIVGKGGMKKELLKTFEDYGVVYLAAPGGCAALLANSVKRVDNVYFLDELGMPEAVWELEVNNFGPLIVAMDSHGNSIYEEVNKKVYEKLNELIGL

[3] = substrate: O=C(O)C(O)C(O)C(=O)O; experiment: purified protein; type: biochemical, Escherichia coli; conditions: 50 mM Tris-HCl pH 7.4, 37 °C, 250 μM NADH, Fe-S reconstituted

Ki [1]: 261 ± 29 µM
Molecule: O=C(O)C[C@H](O)C(=O)O [S-malate]

Ki [2]: 161 ± 17 µM
Ki [1]: 149 ± 14 µM
Molecule: O=C(O)C(O)C(O)C(=O)O (stereo not drawn) [meso-tartrate]

B1: EcL-TTD (L-tartrate dehydratase, L-TTDα + L-TTDβ) (Escherichia coli K-12) (protein)
chain 1: T1 sequence (P05847 1-303)
chain 2: T1 sequence (P0AC35 1-201)
Km [3]: 190 ± 30 µM
